Data published in patent US12421282B2, “Compositions and methods for the treatment of metabolic and liver disorders” (priority 2021, dated 2025).
*1 amine or outer side, *2 acyl side, *3 side chain or, on linkers, in order; H or OH if unused. Where a SMILES comes first, the peptide text is derived from it. Side-chain parts run from the residue outwards. [ ]: non-standard residue; d: D form. The star is where a group is joined. Nonadecanoyl(19-PO3H2) = O=C(CCCCCCCCCCCCCCCCCCP(=O)(O)O)*; γGlu = O=C(O)[C@H](CCC(=O)[*:2])N[*:1]; AEEA = NCCOCCOCC(=O)O; Aib = CC(C)(N)C(=O)O

Set-up: species or system cynomolgus monkeys
Conditions: cynomolgus monkey, in vivo, sc, 0.2 mg/kg
Description: Subcutaneous (SC) dosing of the compounds in a vehicle of 0.1% bovine serum albumin in phosphate buffered saline solution was performed with male cynomolgus monkeys. […] Samples were obtained at 1, 4, 8, 12, 24, 48, 72, 96, 120, 168, 192, 240 and 336 hours after the single dose was administered.

Row | SMILES | AUC(0-inf) [µg·h/mL] | AUC(0-t) [µg·h/mL] | Cmax [ng/mL] | Tmax [h] | half-life [h] | mean half life as compared to tirzepatide (in words) | mean half life longer compared to tirzepatide
1 | CC[C@H](C)[C@H](NC(=O)[C@H](CC(C)C)NC(=O)[C@H](Cc1c[nH]c2ccccc12)NC(=O)[C@H](CCC(N)=O)NC(=O)[C@@H](NC(=O)[C@H](Cc1ccccc1)NC(=O)[C@H](C)NC(=O)[C@H](CCCCNC(=O)COCCOCCNC(=O)COCCOCCNC(=O)CC[C@H](NC(=O)CCCCCCCCCCCCCCCCCCP(=O)(O)O)C(=O)O)NC(=O)[C@H](CCC(N)=O)NC(=O)[C@H](C)NC(=O)[C@@H](NC(=O)[C@H](CCCNC(=N)N)NC(=O)[C@H](CC(=O)O)NC(=O)[C@H](CC(C)C)NC(=O)C(C)(C)NC(=O)[C@@H](NC(=O)[C@H](CO)NC(=O)[C@H](Cc1ccc(O)cc1)NC(=O)[C@H](CC(=O)O)NC(=O)[C@H](CO)NC(=O)[C@@H](NC(=O)[C@H](Cc1ccccc1)NC(=O)[C@@H](NC(=O)CNC(=O)[C@H](CCC(=O)O)NC(=O)C(C)(C)NC(=O)[C@@H](N)Cc1ccc(O)cc1)[C@@H](C)O)[C@@H](C)O)[C@@H](C)CC)[C@@H](C)CC)C(C)C)C(=O)N[C@@H](C)C(=O)NCC(=O)NCC(=O)N1CCC[C@H]1C(=O)N[C@@H](CO)C(=O)N[C@@H](CO)C(=O)NCC(=O)N[C@@H](C)C(=O)N1CCC[C@H]1C(=O)N1CCC[C@H]1C(=O)N1CCC[C@H]1C(=O)N[C@@H](CO)C(N)=O [Compound 16] (H-Y[Aib]EGTFTSDYSI[Aib]LDRIAQK([AEEA-AEEA-γGlu-Nonadecanoyl(19-PO3H2)])AFVQWLIAGGPSSGAPPPS-NH2) | 144 | 138 | 1570 | 9.33 | 70.1 |  | 
2 | CC[C@H](C)[C@H](NC(=O)[C@H](CC(C)C)NC(=O)[C@H](Cc1c[nH]c2ccccc12)NC(=O)[C@H](CC(N)=O)NC(=O)[C@@H](NC(=O)[C@H](Cc1ccccc1)NC(=O)[C@H](C)NC(=O)[C@H](CCC(N)=O)NC(=O)[C@H](CCCCNC(=O)COCCOCCNC(=O)COCCOCCNC(=O)CC[C@H](NC(=O)CCCCCCCCCCCCCCCCCCP(=O)(O)O)C(=O)O)NC(=O)[C@H](C)NC(=O)[C@@H](NC(=O)[C@H](CCCCN)NC(=O)[C@H](CC(=O)O)NC(=O)[C@H](CC(C)C)NC(=O)C(C)(C)NC(=O)[C@@H](NC(=O)[C@H](CO)NC(=O)[C@H](Cc1ccc(O)cc1)NC(=O)[C@H](CC(=O)O)NC(=O)[C@H](CO)NC(=O)[C@@H](NC(=O)[C@H](Cc1ccccc1)NC(=O)[C@@H](NC(=O)CNC(=O)[C@H](CCC(=O)O)NC(=O)C(C)(C)NC(=O)[C@@H](N)Cc1ccc(O)cc1)[C@@H](C)O)[C@@H](C)O)[C@@H](C)CC)[C@@H](C)CC)C(C)C)C(=O)N[C@@H](C)C(=O)NCC(=O)NCC(=O)N1CCC[C@H]1C(=O)N[C@@H](CO)C(=O)N[C@@H](CO)C(=O)NCC(=O)N[C@@H](C)C(=O)N1CCC[C@H]1C(=O)N1CCC[C@H]1C(=O)N1CCC[C@H]1C(=O)N[C@@H](CO)C(N)=O [Compound 22] (H-Y[Aib]EGTFTSDYSI[Aib]LDKIAK([AEEA-AEEA-γGlu-Nonadecanoyl(19-PO3H2)])QAFVNWLIAGGPSSGAPPPS-NH2) | 510 | 417 | 2380 | 33.3 | 137 | more than twice an long as compared to tirzepatide | at least 50%
